Laboratory results taken from article PMC8014119 (Angewandte Chemie (International Ed. in English), 2021).
Like-named read-outs stand apart in the source and are kept apart here.

Key:
SARS-CoV-2 = conditions: Vero E6 cells; cited from earlier work
SARS-CoV-2 Mpro = SARS-CoV-2 Mpro (Severe acute respiratory syndrome coronavirus 2, UniProt P0DTD1); type: biochemical
[1] = molecular target: His-tagged SARS-CoV-2 Mpro (Severe acute respiratory syndrome coronavirus 2, UniProt P0DTD1); experiment: Mpro inhibition in the presence of mammalian cell lysates; type: biochemical; conditions: 50 µM substrate, 10 min, 37 °C
human cathepsin L = human cathepsin L (Homo sapiens, UniProt P07711); experiment: Inhibition of human cathepsin L; type: biochemical; conditions: in words
human cathepsin B = human cathepsin B (Homo sapiens, UniProt P07858); experiment: Inhibition of human cathepsin B; type: biochemical; conditions: in words
[2] = Table 2, azapeptide nitriles, 50 µM substrate, pH 7.2, 37 °C, 60 min
[3] = Table 3, 5-halopyridin-3-yl esters, kinetic analysis as Table 2

Sequence of human cathepsin L (P07711 114-333): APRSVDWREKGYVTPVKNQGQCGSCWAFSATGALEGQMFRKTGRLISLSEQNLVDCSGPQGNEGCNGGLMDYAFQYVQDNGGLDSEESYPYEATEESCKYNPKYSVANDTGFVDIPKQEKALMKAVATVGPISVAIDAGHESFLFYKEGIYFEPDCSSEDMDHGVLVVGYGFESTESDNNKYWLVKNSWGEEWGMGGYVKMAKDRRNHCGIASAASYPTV

| SMILES | k inac/K i (SARS-CoV-2 Mpro; [2]) | Mpro inhibition in HEK and A549 cell lysates ([1]; inhibitor 1 μM) | k inac/K i (SARS-CoV-2 Mpro; [3]) | other results |
| --- | --- | --- | --- | --- |
| O=C(Oc1cncc(Cl)c1)c1cccc2c1CCN2 [5‐chloropyridin‐3‐yl dihydroindole‐4‐carboxylate] |  |  |  | activity against infectivity and replication of SARS-CoV-2 (SARS-CoV-2): active |
| CC(C)C[C@H](NC(=O)OCc1ccccc1)C(=O)N(C)N(C#N)CCC(N)=O [Compound 3] | 489 M⁻¹ s⁻¹ |  |  |  |
| CN(C(=O)[C@H](Cc1ccccc1)NC(=O)OCc1ccccc1)N(C#N)CCC(N)=O [Compound 4] | 1150 M⁻¹ s⁻¹ |  |  | Mpro inhibition in HEK and A549 cell lysates ([1]; inhibitor 10 μM): virtually complete inhibition |
| CC(C)C[C@H](NC(=O)[C@@H](NC(=O)OCc1ccccc1)C(C)(C)C)C(=O)N(C)N(C#N)CCC(N)=O [Compound 5] | 2060 M⁻¹ s⁻¹ |  |  |  |
| CN(C(=O)[C@H](Cc1ccccc1)NC(=O)[C@@H](NC(=O)OCc1ccccc1)C(C)(C)C)N(C#N)CCC(N)=O [Compound 6] | 36 000 M^−1 s^−1 | virtually complete inhibition |  |  |
| CC[C@H](NC(=O)OCc1ccccc1)C(=O)N[C@H](C(=O)N[C@@H](CC(C)C)C(=O)N(C)N(C#N)CCC(N)=O)C(C)(C)C [Compound 7] | 21 400 M^−1 s^−1 |  |  |  |
| CC[C@H](NC(=O)OCc1ccccc1)C(=O)N[C@H](C(=O)N[C@@H](Cc1ccccc1)C(=O)N(C)N(C#N)CCC(N)=O)C(C)(C)C [Compound 8] |  | virtually complete inhibition |  |  |
| O=C(Oc1cncc(Cl)c1)c1cc2cc(Cl)ccc2[nH]1 [Compound 17] |  | virtually complete inhibition | 29 100 M^−1 s^−1 | cathepsin L inhibition (human cathepsin L): did not inhibit; cathepsin B inhibition (human cathepsin B): did not inhibit |
| O=C(Oc1cncc(Br)c1)c1cccc2[nH]ccc12 [Compound 18] |  |  | 24 000 M^−1 s^−1 |  |
| O=C(Oc1cncc(Cl)c1)c1ccc2[nH]c3c(c2c1)CCCC3 [Compound 19] |  |  | 5620 M⁻¹ s⁻¹ |  |
